Patent US9295259B2, “Fungicidal substituted 1-{2-[2-halo-4-(4-halogen-phenoxy)-phenyl]-2-alkoxy-3-methyl-butyl}-1H [1,2,4]triazole compounds” (BASF SE, priority 2011, dated 2016)

Columns and labels:
[1] = system: Septoria tritici; test: Activity against leaf blotch on wheat caused by Septoria tritici (Septtr), microtest; format: cell-based; conditions: relative growth vs compound-free control (100%), 405 nm, 7 days after inoculation
[2] = system: Phakopsora pachyrhizi; test: Protective control of soy bean rust on soy beans (Phakpa P2), green house; format: in vivo, Phakopsora pachyrhizi on soy bean; conditions: 16 ppm spray, inoculated 2 days after treatment, % diseased leaf area, untreated control 80

COC(C)(Cn1cncn1)c1ccc(Oc2ccc(Cl)cc2)cc1Cl (stereo not shown) [EP 0126430]
Growth (%) at 0.000125 ppm Septtr [1]: 63% | Disease (%) at 16 ppm Phakpa P2 [2]: 60%

CCC(Cn1cncn1)(OC)c1ccc(Oc2ccc(Cl)cc2)cc1Cl (stereo not shown) [U.S. Pat. No. 4,940,720]
Growth (%) at 0.000125 ppm Septtr [1]: 53% | Disease (%) at 16 ppm Phakpa P2 [2]: 60%
